Experimental findings from ChEMBL document CHEMBL5634079, “Development of novel celastrol-ligustrazine hybrids as potent peroxiredoxin 1 inhibitors against lung cancer” (Eur J Med Chem, 2023) are described below.

A word on the pIC50: it is the negative decadic logarithm of the IC50, by convention in mol/L.

Structures are written as SMILES. pIC50: −log10 of the molar value. Calls of active or inactive are those of the source. The rule behind the calls is not given here.

The subject of data set [1] is A549. In words: Downregulation of PRDX2 level in human A549 cells at 2 to 4 uM by Western blot analysis. It is filed as functional, cell-based. Particulars: dose 2-4 µM. In general terms: A western blot detects proteins with antibodies after separation by electrophoresis.
In data set [2] the test system is A549. In words: Induction of apoptosis in human A549 cells assessed as late apoptotic cells at 4 uM incubated for 48 hrs by Annexin V-FITC and PI staining based flow cytometric analysis (reference value: 0.73%). The data set is classed as functional. On the technique in general: In flow cytometry, cells or beads pass a laser one at a time.
Data set [3] can be described thus: Toxicity in C57BL/6J mouse implanted with mouse Lewis lung carcinoma cell line assessed as heart damage at 0.5 to 1 mg/kg, ip administered every day for 19 days. To be noted: in vivo, 456 h, dose 0.5-1 mg/kg, time 19 day. It is filed as organism-based.
Data set [4] has as its system SK-HEP1. In words: Antiproliferative activity against human SK-HEP1 cells assessed as inhibition of cell growth incubated for 48 hrs by MTT assay. The data set is classed as functional, cell-based. To be noted: SK-HEP1, 48 h. In general terms: Tetrazolium dyes change colour on reduction, which living cells bring about.
In data set [5] the test system is A549. In words: Induction of apoptosis in human A549 cells assessed as increase in cleaved PARP expression at 2 to 4 uM by Western blot analysis. It is filed as functional, cell-based. To be noted: dose 2-4 µM.
For data set [6], the system named is A549. As to the kind of experiment: Induction of apoptosis in human A549 cells assessed as necrotic cells at 2 uM incubated for 48 hrs by Annexin V-FITC and PI staining based flow cytometric analysis (reference value: 4.68%). It is filed as functional.
Data set [7] concerns A549. As to the kind of experiment: Downregulation of PRDX3 level in human A549 cells at 2 to 4 uM by Western blot analysis. To be noted: dose 2-4 µM. It is filed as functional, cell-based.
Data set [8] can be described thus: Toxicity in C57BL/6J mouse implanted with mouse Lewis lung carcinoma cell line assessed as spleen damage at 0.5 to 1 mg/kg, ip administered every day for 19 days. Particulars: in vivo, 456 h, dose 0.5-1 mg/kg, time 19 day. The data set is classed as organism-based.
Data set [9] addresses T1, Peroxiredoxin-1 (Homo sapiens, UniProt Q06830).
T1 sequence (Q06830 whole entry): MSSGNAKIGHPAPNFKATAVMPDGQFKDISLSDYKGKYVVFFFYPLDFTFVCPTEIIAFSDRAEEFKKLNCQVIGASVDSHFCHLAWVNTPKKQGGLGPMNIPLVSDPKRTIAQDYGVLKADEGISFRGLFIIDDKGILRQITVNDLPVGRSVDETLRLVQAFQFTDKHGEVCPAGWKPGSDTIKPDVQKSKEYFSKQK
As to the kind of experiment: Inhibition of PRDX1 (unknown origin) in presence of cofactor A/cofactor B/NADPH incubated for 25 mins. To be noted: read-out: IC50.

Data set [10] in a line: Toxicity in C57BL/6J mouse implanted with mouse Lewis lung carcinoma cell line assessed as decrease in body weight at 0.5 to 1 mg/kg, ip administered every day for 19 days. Particulars: in vivo, 456 h, dose 0.5-1 mg/kg, time 19 day. The data set is classed as organism-based.

`CC1=C(OC(=O)/C=C/c2ccccc2)C(=O)C=C2C1=CC=C1[C@@]2(C)CC[C@@]2(C)[C@@H]3C[C@](C)(C(=O)NCc4nc(C)c(C)nc4C)CC[C@]3(C)CC[C@]12C`: the result in data set [1], in data set [5] and in data set [7] was Active. The Activity in [2] is 33.4%; in data set [3], “Non-Toxic”; in [6] it was 3.57%; in data set [8] it was “Non-Toxic”; in data set [10], “Non-Toxic”. Moreover, the pIC50 in [4] is 5.62; in data set [9], 6.79.
